# Laboratory results: patent US20240108623A1, “METHODS OF TREATING CANCER WITH POZIOTINIB” (BOARD OF REGENTS, THE UNIVERSITY OF TEXAS SYSTEM, priority 2021, published 2024)
# What was measured:
# Experiment in all cases: Ba/F3 cell drug screening, Cell Titer Glo
# Assay type in all cases: cell-based
# EGFR Ex19del/C797S = biological target: T1, EGFR Ex19del/C797S (Homo sapiens, UniProt P00533, C797S/DEL746-750); conditions: Ba/F3 cells expressing EGFR Ex19del/C797S; 72 hours
# T1 construct: expressed in transfected cells; host or cells: Ba/F3 (murine pro-B cells), retroviral transduction with pBabe-Puro based vectors
# How it was run: (§1)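 Mutant EGFR-driven Ba/F3 cells, maintained in 1 ng/ml EGF, are treated 72 h with a seven-concentration TKI series. Viability is read by CellTiter-Glo, and IC50 derived by variable-slope regression.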
# EGFR E709K = biological target: T2, EGFR E709K (Homo sapiens, UniProt P00533, E709K); conditions: Ba/F3 cells expressing EGFR E709K; 72 hours
# T2 construct: expressed in transfected cells; host or cells: Ba/F3 (retroviral transduction, pBabe-Puro based vectors)
# How it was run: as §1
# EGFR L858R G724S = biological target: T3, EGFR L858R G724S (Homo sapiens, UniProt P00533, G724S/L858R); conditions: Ba/F3 cells expressing EGFR L858R G724S; 72 hours
# T3 construct: expressed in transfected cells; host or cells: Ba/F3 (murine pro-B cells), retroviral transduction with pBabe-Puro based vectors
# How it was run: as §1
# EGFR A763insLQEA = biological target: T4, EGFR A763insLQEA (Homo sapiens, UniProt P00533, INS763LQEA); conditions: Ba/F3 cells expressing EGFR A763insLQEA; 72 hours
# T4 construct: expressed in transfected cells; host or cells: Ba/F3 (retroviral, pBabe-Puro based vector)
# How it was run: as §1
# EGFR Ex19del L718V = biological target: T5, EGFR Ex19del L718V (Homo sapiens, UniProt P00533, DEL746-750/L718V); conditions: Ba/F3 cells expressing EGFR Ex19del L718V; 72 hours
# T5 construct: expressed in transfected cells; host or cells: Ba/F3 (murine pro-B cells), retroviral transduction with pBabe-Puro based vectors
# How it was run: as §1
compound,measurement,setting,value
C=CC(=O)N1CCC(Oc2cc3c(Nc4ccc(Cl)c(Cl)c4F)ncnc3cc2OC)CC1 [Poziotinib],Response of Cells Comprising PACC EGFR Mutations to Second-Generation TKIs,EGFR Ex19del/C797S,0.458
same,Response of Cells Comprising PACC EGFR Mutations to Second-Generation TKIs,EGFR E709K,0.0379
same,Response of Cells Comprising PACC EGFR Mutations to Second-Generation TKIs,EGFR L858R G724S,0.0068
same,Response of Cells Comprising Classical-Like EGFR Mutations to Second-Generation TKIs,EGFR A763insLQEA,0.01607
same,Response of Cells Comprising PACC EGFR Mutations to Second-Generation TKIs,EGFR Ex19del L718V,0.003363
